Results on 16 molecules are retold here after patent publication US9133181B2, “Substituted 6-(4-hydroxy-phenyl)-1H-pyrazolo[3,4-b]pyridine derivatives as kinase inhibitors” (SANOFI, priority 2012, dated 2015).

In this assay the target is T1, human full-length recombinant PKC βII (Homo sapiens, UniProt P05771).
T1 construct: Active human full-length recombinant PKC βII; purchased Invitrogen GmbH, Darmstadt, Germany
T1 sequence (P05771 1-673 isoform P05771-2): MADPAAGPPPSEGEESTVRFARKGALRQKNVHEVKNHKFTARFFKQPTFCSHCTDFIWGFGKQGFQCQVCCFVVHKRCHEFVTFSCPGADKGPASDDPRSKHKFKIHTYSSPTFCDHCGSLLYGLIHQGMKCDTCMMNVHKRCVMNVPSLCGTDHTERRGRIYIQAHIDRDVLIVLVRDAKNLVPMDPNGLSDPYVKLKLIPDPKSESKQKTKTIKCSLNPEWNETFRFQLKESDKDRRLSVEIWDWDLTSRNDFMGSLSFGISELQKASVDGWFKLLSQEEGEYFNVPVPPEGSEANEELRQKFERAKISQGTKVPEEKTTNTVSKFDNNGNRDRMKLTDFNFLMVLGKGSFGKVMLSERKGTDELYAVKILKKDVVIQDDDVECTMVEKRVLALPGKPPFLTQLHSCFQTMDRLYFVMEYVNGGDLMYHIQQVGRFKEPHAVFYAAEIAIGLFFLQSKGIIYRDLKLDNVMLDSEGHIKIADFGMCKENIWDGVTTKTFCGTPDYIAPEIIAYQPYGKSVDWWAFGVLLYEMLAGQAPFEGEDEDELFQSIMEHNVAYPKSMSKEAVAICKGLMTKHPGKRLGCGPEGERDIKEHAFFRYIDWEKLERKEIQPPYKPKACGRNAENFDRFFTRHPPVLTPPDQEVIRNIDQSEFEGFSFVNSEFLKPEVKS
The assay can be described thus: Determination of PKC βII inhibition (Caliper mobility shift kinase assay). It is filed as biochemical. The note with it: final compound concentration 1.14 μM (±0.15 μM); 60 min incubation at 32° C. Put shortly: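 Compound was tested at a final 1.14 µM (±0.15 µM), with % inhibition derived from the product/(substrate+product) peak ratio on a Caliper mobility-shift read-out. Full-length PKC βII was activated by CaCl2, PS and DAG in pH 7.4 Hepes/MgCl2. Peptide and ATP were at 3 µM and 120 µM in the added mix. Incubation was 60 min at 32 °C.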
In the case of `CCC1(NCc2cc(-c3ccc(O)cc3)nc3[nH]nc(C)c23)CCCNC1` (stereo not shown) [Example 46, 4-{4-[(3-Ethyl-piperidin-3-ylamino)-methyl]-3-methyl-1H-pyrazolo[3,4-b]pyridin-6-yl} phenol], the inhibition at 1.14 µM was 90%.

With `Cc1n[nH]c2nc(-c3ccc(O)cc3F)cc(CN3CCNC[C@H]3c3ccccc3)c12` [Example 110, 3-Fluoro-4-[3-methyl-4-((R)-2-phenyl-piperazin-1-ylmethyl)-1H-pyrazolo[3,4-b]pyridin-6-yl]-phenol], the inhibition at 1.14 µM is 42%. Next, `Cc1n[nH]c2nc(-c3ccc(O)cc3)cc(CN3CCNCC3c3ccc(C(F)(F)F)cc3)c12` (stereo not shown) [Example 44, 4-{3-Methyl-4-[2-(4-trifluoromethyl-phenyl)-piperazin-1-ylmethyl]-1H-pyrazolo[3,4-b]pyridin-6-yl}-phenol]: 38%; `Cc1n[nH]c2nc(-c3ccc(O)cc3)cc(CN3CCNCC3c3ccccc3)c12` (stereo not shown) [Example 41, 4-[3-Methyl-4-(2-phenyl-piperazin-1-ylmethyl)-1H-pyrazolo[3,4-b]pyridin-6-yl]-phenol]: 93%. Then `Cc1n[nH]c2nc(-c3ccc(O)cc3F)cc(CN3CC(C)(C)NCC3(C)C3CC3)c12` (stereo not shown) [Example 34, 4-[4-(2-Cyclopropyl-2,5,5-trimethyl-piperazin-1-ylmethyl)-3-methyl-1H-pyrazolo[3,4-b]pyridin-6-yl]-3-fluoro-phenol], with 73%; and `Cc1n[nH]c2nc(-c3ccc(O)cc3)cc(CN3CC(C)N(CC4CCCO4)CC3(C)C)c12` (stereo not shown) [Example 62, 4-{3-Methyl-4-[2,2,5-trimethyl-4-(tetrahydro-furan-2-ylmethyl)-piperazin-1-ylmethyl]-1H-pyrazolo[3,4-b]pyridin-6-yl}-phenol], with 99%.

Regarding `COCC(=O)N1CC(C)N(Cc2cc(-c3ccc(O)cc3)nc3[nH]nc(C)c23)CC12CCCC2` (stereo not shown) [Example 82, 1-{9-[6-(4-Hydroxy-phenyl)-3-methyl-1H-pyrazolo[3,4-b]pyridin-4-ylmethyl]-8-methyl-6,9-diaza-spiro[4.5]dec-6-yl}-2-methoxy-ethanone], the inhibition at 1.14 µM amounted to 85%. Then `Cc1n[nH]c2nc(-c3ccc(O)cc3)cc(CN3CC(C)(C)NCC3(C)C)c12` [Example 49, 4-[3-Methyl-4-(2,2,5,5-tetramethyl-piperazin-1-ylmethyl)-1H-pyrazolo[3,4-b]pyridin-6-yl]-phenol], with 95%; and `Cc1n[nH]c2nc(-c3ccc(O)cc3F)cc(CN3CCCC(C)(N)C3)c12` (stereo not shown) [Example 24, 4-[4-(3-Amino-3-methyl-piperidin-1-ylmethyl)-3-methyl-1H-pyrazolo[3,4-b]pyridin-6-yl]-3-fluoro-phenol], with 94%; and `Cc1n[nH]c2nc(-c3ccc(O)cc3F)cc(CN3CC(C)(C)N(C(=O)CO)CC3(C)C)c12` [Example 80, 1-{4-[6-(2-Fluoro-4-hydroxy-phenyl)-3-methyl-1H-pyrazolo[3,4-b]pyridin-4-ylmethyl]-2,2,5,5-tetramethyl-piperazin-1-yl}-2-hydroxy-ethanone], with 93%. Then `Cc1n[nH]c2nc(-c3ccc(O)cc3F)cc(CN3C[C@](C)(C4CC4)NCC3(C)C)c12` [Example 150, 4-[4-((S)-5-Cyclopropyl-2,2,5-trimethyl-piperazin-1-ylmethyl)-3-methyl-1H-pyrazolo[3,4-b]pyridin-6-yl]-3-fluoro-phenol], with 100%. Then `Cc1n[nH]c2nc(-c3ccc(O)cc3F)cc(CN3CC(C)NCC3C(F)(F)F)c12` (stereo not shown) [Example 19, 3-Fluoro-4-[3-methyl-4-(5-methyl-2-trifluoromethyl-piperazin-1-ylmethyl)-1H-pyrazolo[3,4-b]pyridin-6-yl]-phenol], with 99%; and `Cc1n[nH]c2nc(-c3ccc(O)cc3F)cc(CN3CCNC[C@H]3C(F)(F)F)c12` [Example 108, 3-Fluoro-4-[3-methyl-4-((S)-2-trifluoromethyl-piperazin-1-ylmethyl)-1H-pyrazolo[3,4-b]pyridin-6-yl]-phenol], with 102%; and `Cc1n[nH]c2nc(-c3ccc(O)cc3F)cc(CN3CC(C)(C)NCC34CCCC4)c12` [Example 15, 4-[4-(8,8-Dimethyl-6,9-diaza-spiro[4.5]dec-6-ylmethyl)-3-methyl-1H-pyrazolo[3,4-b]pyridin-6-yl]-3-fluoro-phenol], with 96%.

`Cc1n[nH]c2nc(-c3ccc(O)cc3F)cc(CN3CCNCC3c3ccccc3F)c12` (stereo not shown) [Example 10, 3-Fluoro-4-{4-[2-(2-fluoro-phenyl)-piperazin-1-ylmethyl]-3-methyl-1H-pyrazolo[3,4-b]pyridin-6-yl}-phenol]: the inhibition at 1.14 µM was found to be 102%. Then `Cc1n[nH]c2nc(-c3ccc(O)cc3F)cc(C(C)N3C[C@@H](C)N[C@@H](C)C3)c12` (stereo partly drawn) [Example 98, 4-{4-[1-((3S,5R)-3,5-Dimethyl-piperazin-1-yl)-ethyl]-3-methyl-1H-pyrazolo[3,4-b]pyridin-6-yl}-3-fluoro-phenol], with 87%.
